Molecules are shown by their SMILES. A value given as a limit tells only on which side of the number the result lay.

This note sets out measurements from patent publication US8318731B2, “Pyrrolopyrimidines” (Janssen Pharmaceutica NV, priority 2007, dated 2012).

In assay [1] the test system is MDA-MB-231. As to the kind of experiment: Cellular proliferation assay (Alamar blue), MDA-MB-231. Type of assay: cell-based. Particulars: Homo sapiens, MDA-MB-231, MDA-MB-231 cells; 10% FCS; 72 h with compound; Alamar blue 24 h; read-out: pIC50 MDA/MB231 (converted). Here is the method: (§1) Cellular proliferation of these compounds was tested on a panel of different cell lines in the presence of 10% FCS serum (37° C. and 5% (v/v) CO2). In a first step these cells were seeded and incubated for 24 hours in the absence of compound. In the second step the cells were incubated for 72 hours with the compounds to be tested for 72 hours. The viable cell number was finally assessed in a standard Alamar blue cell viability assay.
(§2) The viable cell number was assessed by incubation for either 4 h (HCT-116, H1299) 6 h (U87-MG) or 24 h (A2780, PC3, MDA-MB-231) with Alamar blue (Resazurin 9 μg/ml, K-Ferrocyanide 90 μM, K-Ferricyanide 90 μM) and the converted fluorescent product was quantified on a fluorescent plate readed (544 nm/590 nm). Effect of the compounds is calculated as of on control cells.
For orientation: Alamar Blue is a resazurin reagent that responds to reducing activity.

Assay [2] deals with U87-MG. Briefly: Cellular proliferation assay (Alamar blue), U87-MG. Particulars: Homo sapiens, U-87 MG; U87-MG cells; 10% FCS; 72 h with compound; Alamar blue 6 h; read-out: pIC50 U87MG (converted). Format: cell-based. Here is the method: as §1, §2
For assay [3], the system named is HCT-116. As to the kind of experiment: Cellular proliferation assay (Alamar blue), HCT-116. Format: cell-based. Particulars: Homo sapiens; HCT-116 cells; 10% FCS; 72 h with compound; Alamar blue 4 h; read-out: pIC50 HCT-116 (converted). On the procedure: as §1, §2
In assay [4] the test system is H1299. Briefly: Cellular proliferation assay (Alamar blue), H1299. Type of assay: cell-based. Particulars: Homo sapiens, NCI-H1299, H1299 cells; 10% FCS; 72 h with compound; Alamar blue 4 h; read-out: pIC50 H1299 (converted). Here is the method:
as §1, §2

Assay [5] concerns A2780. Briefly: Cellular proliferation assay (Alamar blue), A2780. Format: cell-based. Particulars: Homo sapiens, A2780, A2780 cells; 10% FCS; 72 h with compound; Alamar blue 24 h; read-out: pIC50 A2780 (converted). On the procedure:
as §1, §2

For assay [6], the target named is T1, PLK4 (h) (Homo sapiens, UniProt O00444).
T1 sequence (O00444 1-970): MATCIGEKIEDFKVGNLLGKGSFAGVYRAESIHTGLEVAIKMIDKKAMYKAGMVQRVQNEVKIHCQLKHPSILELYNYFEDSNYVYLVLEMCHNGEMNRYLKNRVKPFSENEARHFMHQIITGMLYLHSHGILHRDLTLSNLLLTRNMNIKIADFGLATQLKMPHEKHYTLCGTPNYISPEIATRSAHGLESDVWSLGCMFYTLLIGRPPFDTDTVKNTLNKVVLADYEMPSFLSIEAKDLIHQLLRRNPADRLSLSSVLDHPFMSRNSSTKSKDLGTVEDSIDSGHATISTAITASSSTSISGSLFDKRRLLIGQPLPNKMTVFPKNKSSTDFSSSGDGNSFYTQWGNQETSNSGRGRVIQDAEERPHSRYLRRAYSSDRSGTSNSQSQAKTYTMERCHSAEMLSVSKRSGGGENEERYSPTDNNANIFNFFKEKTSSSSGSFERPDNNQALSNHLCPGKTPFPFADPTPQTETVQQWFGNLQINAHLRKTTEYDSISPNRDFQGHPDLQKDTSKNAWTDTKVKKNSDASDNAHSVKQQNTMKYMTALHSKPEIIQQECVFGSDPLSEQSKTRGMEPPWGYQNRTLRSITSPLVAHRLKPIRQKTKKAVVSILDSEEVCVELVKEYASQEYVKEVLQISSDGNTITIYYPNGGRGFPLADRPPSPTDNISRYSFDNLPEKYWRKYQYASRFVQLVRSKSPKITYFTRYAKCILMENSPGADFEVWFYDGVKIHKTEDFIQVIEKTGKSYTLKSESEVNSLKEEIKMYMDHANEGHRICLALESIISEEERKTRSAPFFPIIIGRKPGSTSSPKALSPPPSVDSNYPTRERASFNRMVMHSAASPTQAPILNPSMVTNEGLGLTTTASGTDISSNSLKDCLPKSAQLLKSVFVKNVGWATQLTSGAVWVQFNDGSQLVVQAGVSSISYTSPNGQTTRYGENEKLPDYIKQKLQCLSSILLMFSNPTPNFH
Briefly: PLK-4 human kinase scintillation proximity assay (SPA). Format: biochemical. Particulars: 1 μM ATP, 60 minutes at r.t., read-out: PLK4 pIC50 (converted). On the procedure: The in vitro inhibition of a panel of kinases was assessed using either the scintillation proximity assay (SPA) as described by Cook, N. D. et al., Advances in Experimental Medicine and Biology (1991), 36; p. 525-528.
In the SPA technology the activity of the kinase of interest is measured using an appropriate biotinylated substrate that is incubated with the aforementioned kinase protein in the presence of (^33P) radiolabeled ATP. (^33P) Phosphorylation of the substrate is subsequently measured through binding of the phosphorylated substrate to streptavidine coated beads that are based on the scintillant poly(vinyl toluene) (PVT-Beads). The scintillation intensity is detected by imaging on Leadseeker.
All kinases are pre-diluted to a 10× working concentration prior to addition into the assay. The composition of the dilution buffer for each kinase is detailed below.
In a final reaction volume of 30 μl, PLK4 (h) (19 μg/ml) is incubated with 50 mM Hepes pH 8.0, 10 mM MgCl2, 50 mM NaCl, 1 mM NaF, 1 mM DTT, 10 μM of peptide Biotin-RPRGQRDSSYYWE-OH, 1 μM ATP and 2 nM [γ-^33P-ATP] (6.0 μCi/ml). After incubation of 60 minutes at r.t., the reaction is stopped by addition of 40 μL of stop solution containing 8.7 mM EDTA, BSA 0.17%, 0.17% Triton X-100, 1.7 mg/ml SPA beads (GE-healthcare). The plate is centrifuged and read for Scintillation imaging on Leadseeker.
In general terms: In a scintillation proximity assay essentially only radioactivity close to the scintillant gives light.

Assay [7] deals with PC3. Briefly: Cellular proliferation assay (Alamar blue), PC3. Format: cell-based. Particulars: Homo sapiens, PC-3, PC-3 cells; 10% FCS; 72 h with compound; Alamar blue 24 h; read-out: pIC50 PC-3 (converted). On the procedure: as §1, §2

For the compound `CN1CCN(C)C(=O)CN(C)C(=O)CCc2cccc(c2)Nc2ncnc3[nH]cc(c23)C1` [Compound 8], the IC50 in assay [1], in assay [2], in assay [3], in assay [4], in assay [5] and in assay [6] was over 10 µM each time. For the same compound, in assay [7], the IC50 was over 10 µM.
For the compound `COc1ccc2cc1OCCCC(=O)N1CCN(CC1)Cc1c[nH]c3ncnc(c13)N2` [Compound 105], the IC50 was over 10 µM in assay [1]; over 10 µM in assay [2]; over 10 µM in assay [3]; over 10 µM in assay [4]; over 10 µM in assay [5]; 1 µM in assay [6]. The IC50 in assay [7] was over 10 µM.
`COc1ccc2cc1N(C)CC(=O)N(C)CCCN(C)Cc1c[nH]c3ncnc(c13)N2` [Compound 153]: the IC50 in assay [1] was 7.94 µM; in assay [2] it was 3.16 µM; in assay [3], 1.58 µM; in assay [4] it was 3.98 µM; in assay [5], 2 µM; in assay [7] it was 6.31 µM.
Regarding `CCOCCOc1cc(OC)c2cc1OCC(=O)N(C)CCCN(C)Cc1c[nH]c3ncnc(c13)N2` [Compound 151], the IC50 in assay [1], in assay [2], in assay [3], in assay [4], in assay [5] and in assay [7] was over 10 µM in each case.
Regarding `CN1CCN(c2ccc3cc2OCCCC(=O)N(C)CCCN(C)Cc2c[nH]c4ncnc(c24)N3)CC1` [Compound 102], the IC50 was over 10 µM in assay [1]; 6.31 µM in assay [3]; 2.51 µM in assay [4]; 6.31 µM in assay [5]; 3.98 µM in assay [6]; 5.01 µM in assay [7].
Regarding `CN1CCCN(C)C(=O)COc2cc(ccc2OCCOc2cc(C(F)(F)F)ccn2)Nc2ncnc3[nH]cc(c23)C1` [Compound 154], the IC50 in assay [1] is 5.01 µM; in assay [2] it was 1 µM; in assay [3], 0.316 µM; in assay [4], 0.631 µM; in assay [5] it was 0.251 µM; in assay [7], 5.01 µM.
For `CN1CCCN(C)C(=O)COc2cc(ccc2OCCNc2ncccn2)Nc2ncnc3[nH]cc(c23)C1` [Compound 159], the IC50 was over 10 µM in assay [1]; 3.16 µM in assay [2]; 2 µM in assay [3]; 6.31 µM in assay [4]; 1.58 µM in assay [5]; 7.94 µM in assay [7].
On to `CN1CCCN(C)C(=O)COc2cc(ccc2NC(=O)Nc2cc(Cl)cc(Cl)c2)Nc2ncnc3[nH]cc(c23)C1` [Compound 115], for which the IC50 in assay [1] is over 10 µM; in assay [3], 0.794 µM; in assay [4], 1.58 µM; in assay [5] it was 1 µM; in assay [6], 0.158 µM; in assay [7], over 10 µM.
Regarding `COc1ccc2cc1OCC(=O)N(C)CC1CN(Cc3c[nH]c4ncnc(c34)N2)C1` [Compound 89], the IC50 was over 10 µM in assay [1]; over 10 µM in assay [3]; over 10 µM in assay [4]; over 10 µM in assay [5]; 0.251 µM in assay [6]; over 10 µM in assay [7].
In the case of `COc1cc2cc(c1OC)OCCCC(=O)N(C)CCN(C)Cc1c[nH]c3ncnc(c13)N2` [Compound 95], the IC50 in assay [1], in assay [3], in assay [4], in assay [5], in assay [6] and in assay [7] was over 10 µM in each case.
Regarding `CN1CCN(c2ccc3cc2OCCCCC(=O)N2CCN(CC2)Cc2c[nH]c4ncnc(c24)N3)CC1` [Compound 108], the IC50 in assay [1] is over 10 µM; in assay [3], over 10 µM; in assay [4], over 10 µM; in assay [5], over 10 µM; in assay [6], 7.94 µM; in assay [7] it was over 10 µM.
`CN1CCCN(C)C(=O)CCCOc2cc(cc(C(F)(F)F)c2)Nc2ncnc3[nH]cc(c23)C1` [Compound 83]: the IC50 in assay [1] is over 10 µM; in assay [3], over 10 µM; in assay [4], 3.98 µM; in assay [5], over 10 µM; in assay [6] it was 5.01 µM; in assay [7], over 10 µM.
For the compound `COc1cc2cc(c1OC)OCCCC(=O)N(C)CCCN(C)Cc1c[nH]c3ncnc(c13)N2` [Compound 69], the IC50 in assay [1] was over 10 µM; in assay [3], over 10 µM; in assay [4] it was over 10 µM; in assay [5], over 10 µM; in assay [6], 2 µM; in assay [7], over 10 µM.
As for `COc1cc2cc(c1OC)OCC(=O)N(C)CCN(C)Cc1c[nH]c3ncnc(c13)N2` [Compound 96], the IC50 in assay [1] was over 10 µM; in assay [3] it was over 10 µM; in assay [4] it was over 10 µM; in assay [5], over 10 µM; in assay [6], 5.01 µM; in assay [7] it was over 10 µM.
With `CN1CCN(c2ccc3cc2OCCCC(=O)N2CCN(CC2)Cc2c[nH]c4ncnc(c24)N3)CC1` [Compound 109], the IC50 in assay [1], in assay [3], in assay [4], in assay [5], in assay [6] and in assay [7] was over 10 µM in each case.
Turning to `Cc1nc2c3c(c[nH]c3n1)CN(C)CCCN(C)C(=O)COc1cc(ccc1Cl)N2` [Compound 148], the IC50 in assay [1] is 10 µM; in assay [2] it was 3.16 µM; in assay [3], 5.01 µM; in assay [4], 3.98 µM; in assay [5], 1.58 µM; in assay [7], 5.01 µM.
Take `CCCOc1ccc2cc1OCC(=O)N(C)CCCN(C)Cc1c[nH]c3ncnc(c13)N2` [Compound 101]: the IC50 in assay [1] is 7.94 µM; in assay [3], 1.58 µM; in assay [4] it was 0.794 µM; in assay [5] it was 1.58 µM; in assay [6], 0.0398 µM; in assay [7] it was 2 µM.
On to `CN1CCN(C)C(=O)CCCCOc2cc(cc(C(F)(F)F)c2)Nc2ncnc3[nH]cc(c23)C1` [Compound 92], for which the IC50 in assay [1] is over 10 µM; in assay [3] it was over 10 µM; in assay [4], 6.31 µM; in assay [5] it was over 10 µM; in assay [6], over 10 µM; in assay [7], over 10 µM.
